The record followed here is patent publication US20230091225A1, “Bifunctional chimeric heterocyclic compounds for targeted degradation of androgen receptors and use thereof” (HINOVA PHARMACEUTICALS INC., priority 2019, published 2023).

Molecules are shown by their SMILES. Read-outs that look alike come from different tables or passages of the source.

Holding throughout (assay type): cell-based
For test [1], the target named is T1, androgen receptor (AR) (Homo sapiens, UniProt P10275).
T1 sequence (P10275 1-920): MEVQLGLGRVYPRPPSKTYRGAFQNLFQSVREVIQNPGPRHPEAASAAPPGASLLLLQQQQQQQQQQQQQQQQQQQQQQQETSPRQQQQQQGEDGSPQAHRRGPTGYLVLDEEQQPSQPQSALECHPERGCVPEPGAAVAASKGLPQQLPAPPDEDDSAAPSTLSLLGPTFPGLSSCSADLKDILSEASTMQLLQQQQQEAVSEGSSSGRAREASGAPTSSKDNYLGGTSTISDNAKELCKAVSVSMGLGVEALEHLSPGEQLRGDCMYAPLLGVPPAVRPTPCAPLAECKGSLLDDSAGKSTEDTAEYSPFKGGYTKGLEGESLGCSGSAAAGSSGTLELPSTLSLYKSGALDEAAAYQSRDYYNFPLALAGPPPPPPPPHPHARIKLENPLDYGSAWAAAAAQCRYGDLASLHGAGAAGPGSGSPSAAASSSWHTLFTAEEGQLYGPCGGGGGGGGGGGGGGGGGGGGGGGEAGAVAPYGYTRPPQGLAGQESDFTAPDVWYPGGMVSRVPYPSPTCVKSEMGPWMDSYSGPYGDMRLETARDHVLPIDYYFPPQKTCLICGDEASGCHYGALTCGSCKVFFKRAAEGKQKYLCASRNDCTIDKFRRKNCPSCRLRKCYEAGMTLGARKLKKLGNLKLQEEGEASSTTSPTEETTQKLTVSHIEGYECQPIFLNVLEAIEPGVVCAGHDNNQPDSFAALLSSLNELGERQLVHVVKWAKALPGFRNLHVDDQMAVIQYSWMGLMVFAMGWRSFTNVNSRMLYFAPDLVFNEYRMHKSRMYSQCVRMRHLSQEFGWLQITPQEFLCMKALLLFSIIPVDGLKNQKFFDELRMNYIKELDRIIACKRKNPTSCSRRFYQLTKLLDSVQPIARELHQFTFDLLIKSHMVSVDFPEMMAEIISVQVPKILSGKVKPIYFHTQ
Nature of the test: Degradation of androgen receptor (AR) protein in VCaP cells by ELISA. (In general: An ELISA detects its analyte on a solid surface through an enzyme-linked reagent.)

Test [2] has as its target T1, androgen receptor (AR). The experiment in a line: Degradation of androgen receptor (AR) protein in VCaP cells by Western blot. Particulars: percentage of degraded AR at 100 nM, VCaP cells, 16 h. The essentials:
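VCaP cells (5×10^5/well) were seeded overnight, then treated in duplicate for 16 h with compound in 0.1% DMSO final. Lysates (30 μg protein) were immunoblotted for AR (D6F11) with β-actin as loading control, detected by ECL chemiluminescence.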

A further test has as its system LNCaP/AR cells. Nature of the test: Inhibition of proliferation of LNCaP/AR prostate cancer cells (CCK-8).
The mark [3] stands for this setting: 144 h, proliferation of LNCap/AR cells, 6 days, CCK-8, read-out: IC50.
The mark [4] stands for this setting: proliferation of LNCap/AR cells, 6 days, CCK-8, read-out: IC50.

Broadly, the IC50 is the point on the concentration scale where inhibition reaches its midpoint. Regarding `N#Cc1ccc(O[C@H]2CC[C@H](N3Cc4nc(N5CCC(OC6CCN(c7cccc8c7C(=O)N(C7CCC(=O)NC7=O)C8=O)CC6)CC5)ccc4C3=O)CC2)cc1Cl` (some centres unmarked) [Compound 59, 2-chloro-4-(((1r,4r)-4-(2-(4-((1-(2-(2,6-dioxopiperidin-3-yl)-1,3-dioxoisoindolin-4-yl)piperidine-4-yl)oxy)piperidin-1-yl)-5-oxo-5H-pyrrolo[3,4-b]pyridin-6(7H)-yl)cyclohexyl)oxy)benzonitrile], the inhibition at 0.1 µM on androgen receptor (AR) [1] (percentage of degraded AR at 100 nM, VCaP cells, 16 h, ELISA, read-out: % degradation) is less than 25%; on androgen receptor (AR) [2] it was less than 25%. Further, the IC50 in the test with LNCaP/AR cells (setting [3]) is more than 1000 nM.

Turning to `CC1(C)[C@H](Oc2ccc(C#N)c(Cl)c2)C(C)(C)[C@H]1N1Cc2cc(N3CCC(CN4CCN(c5ccc6c(c5)C(=O)N(C5CCC(=O)NC5=O)C6=O)CC4)CC3)ccc2C1=O` (some centres unmarked) [Compound 249], the inhibition at 0.1 µM on androgen receptor (AR) [2] was less than 25%. In addition, in the test on LNCaP/AR cells (setting [3]), the IC50 fell in the range of 100 to 500 nM.

Turning to `CC1(C)[C@H](Oc2ccc(C#N)c(Cl)c2)C(C)(C)[C@H]1N1Cc2nc(N3CCC(CN4CCN(c5cc6c(cc5F)CN(C5CCC(=O)NC5=O)C6=O)CC4)CC3)ccc2C1=O` (some centres unmarked) [Compound 205], on androgen receptor (AR) [2], the inhibition at 0.1 µM was less than 25%. Besides, the IC50 in the test on LNCaP/AR cells (setting [3]) was less than 100 nM.

Compound `CC1(C)[C@H](NC(=O)c2ccc(N3CCC(CN4CCN(c5cc6c(cc5F)CN(C5CCC(=O)NC5=O)C6=O)CC4)CC3)nc2)C(C)(C)[C@H]1Oc1ccc(C#N)c(Cl)c1` (some centres unmarked) [Compound 214] showed an inhibition at 0.1 µM on androgen receptor (AR) [2] of 50 to 79%. Moreover, the IC50 in the test on LNCaP/AR cells (setting [3]) is less than 100 nM.

`N#Cc1ccc(O[C@H]2CC[C@H](NC(=O)c3ccc(N4CCC(NC5CCN(c6cc7c(cc6F)C(=O)N(C6CCC(=O)NC6=O)C7=O)CC5)CC4)cc3)CC2)cc1Cl` (some centres unmarked) [Compound 219, N-((1r,4r)-4-(3-chloro-4-cyanophenoxy)cyclohexyl)-4-(4-((1-(2-(2,6-dioxopiperidin-3-yl)-6-fluoro-1,3-dioxoisoindolin-5-yl)piperidine-4-yl)amino)piperidin-1-yl)benzamide]: on androgen receptor (AR) [2], the inhibition at 0.1 µM lay in the range of 25 to 49%. In the test with LNCaP/AR cells (LNCaP/AR, 144 h), this compound came in with an IC50 of 500 to 1000 nM.

Take `CC1(C)[C@H](Oc2ccc(C#N)c(Cl)c2)C(C)(C)[C@H]1N1Cc2cc(N3CCC(CN4CCN(c5cc6c(cc5F)CN([C@@H]5CCC(=O)NC5=O)C6=O)CC4)CC3)ccc2C1=O` [Compound 250]: the “% degradation” value is recorded as “D (key: A: >80%; B: 79%-50%; C: 49%-25%; D: <25%)” at androgen receptor (AR) [1] and “D (<25%)” on androgen receptor (AR) [2]. Also, the IC50 with LNCaP/AR cells (setting [4]) lay in the range of 100 to 500 nM.

On androgen receptor (AR) [2], `CC1(C)[C@H](Oc2ccc(C#N)c(Cl)c2)C(C)(C)[C@H]1N1Cc2cc(N3CCC(CN4CCN(c5cc6c(cc5F)C(=O)N(C5CCC(=O)NC5=O)C6)CC4)CC3)ccc2C1=O` (some centres unmarked) [Compound 251] had an inhibition at 0.1 µM of 25 to 49%. Further, the 50% inhibitory concentration (IC50) in the test with LNCaP/AR cells (setting [3]) lay in the range of 100 to 500 nM.

`CC1(C)C(Oc2ccc(C#N)c(Cl)c2)C(C)(C)C1N1Cc2nc(N3CCC(CN4CCN(c5cc6c(cc5F)CN([C@@H]5CCC(=O)NC5=O)C6=O)CC4)CC3)ccc2C1=O` (some centres unmarked) [Compound 211]: the “% degradation” value at androgen receptor (AR) [2] is “D (<25%)”. In the test with LNCaP/AR cells (setting [4]), the IC50 was 100 to 500 nM.

In turn, `N#Cc1ccc(OC2C[C@@H]3CN(C(=O)c4ccc(N5CCC(CN6CCN(c7ccc8c(c7)C(=O)N(C7CCC(=O)NC7=O)C8=O)CC6)CC5)nn4)C[C@@H]3C2)cc1Cl` (some centres unmarked) [Compound 218] showed an inhibition at 0.1 µM at androgen receptor (AR) [2] of less than 25%. In addition, in the test on LNCaP/AR cells (setting [3]), the IC50 is more than 1000 nM.
